Data as given in ChEMBL document CHEMBL5055643, “Sophoraflavanone G Resensitizes ABCG2-Overexpressing Multidrug-Resistant Non-Small-Cell Lung Cancer Cells to Chemotherapeutic Drugs” (J Nat Prod, 2021).

Tests used:
Type in all cases: functional
[1] = system: NCI-H460; test: Chemo-sensitizing activity against human NCI-H460 cells assessed as reversal fold at 1 uM measured after 72 hrs in presence of mitoxantrone by CCK8 assay relative to control
[2] = system: NCI-H460; test: Chemo-sensitizing activity against mitoxantrone-selected ABCG2-overexpressing human NCI-H460/MX20 cells assessed as reversal fold at 1 uM measured after 72 hrs in presence of mitoxantrone by CCK8 assay relative to control
[3] = system: NCI-H460; test: Chemo-sensitizing activity against human NCI-H460 cells assessed as reversal fold at 1 uM measured after 72 hrs in presence of topotecan by CCK8 assay relative to control
[4] = system: NCI-H460; test: Chemo-sensitizing activity against mitoxantrone-selected ABCG2-overexpressing human NCI-H460/MX20 cells assessed as reversal fold at 1 uM measured after 72 hrs in presence of topotecan by CCK8 assay relative to control
[5] = system: NCI-H460; test: Chemo-sensitizing activity against human NCI-H460 cells assessed as reversal fold at 1 uM measured after 72 hrs in presence of SN-38 by CCK8 assay relative to control
[6] = system: NCI-H460; test: Chemo-sensitizing activity against mitoxantrone-selected ABCG2-overexpressing human NCI-H460/MX20 cells assessed as reversal fold at 1 uM measured after 72 hrs in presence of SN-38 by CCK8 assay relative to control
[7] = system: A549; test: Chemo-sensitizing activity against human A549 cells assessed as reversal fold at 1 uM measured after 72 hrs in presence of mitoxantrone by CCK8 assay relative to control
[8] = system: A549; test: Chemo-sensitizing activity against becatecarin-selected ABCG2-overexpressing human A549/Bec150 cells assessed as reversal fold at 1 uM measured after 72 hrs in presence of mitoxantrone by CCK8 assay relative to control
[9] = system: A549; test: Chemo-sensitizing activity against human A549 cells assessed as reversal fold at 1 uM measured after 72 hrs in presence of topotecan by CCK8 assay relative to control
[10] = system: A549; test: Chemo-sensitizing activity against becatecarin-selected ABCG2-overexpressing human A549/Bec150 cells assessed as reversal fold at 1 uM measured after 72 hrs in presence of topotecan by CCK8 assay relative to control
[11] = system: A549; test: Chemo-sensitizing activity against human A549 cells assessed as reversal fold at 1 uM measured after 72 hrs in presence of SN-38 by CCK8 assay relative to control
[12] = system: A549; test: Chemo-sensitizing activity against becatecarin-selected ABCG2-overexpressing human A549/Bec150 cells assessed as reversal fold at 1 uM measured after 72 hrs in presence of SN-38 by CCK8 assay relative to control
[13] = system: HEK293; test: Chemo-sensitizing activity against human HEK293 cells assessed as reversal fold at 1 uM measured after 72 hrs in presence of mitoxatrone by CCK8 assay relative to control
[14] = system: HEK293; test: Chemo-sensitizing activity against ABCG2-overexpressing human HEK293/482R cells assessed as reversal fold at 1 uM measured after 72 hrs in presence of mitoxatrone by CCK8 assay relative to control
[15] = system: HEK293; test: Chemo-sensitizing activity against human HEK293 cells assessed as reversal fold at 1 uM measured after 72 hrs in presence of topotecan by CCK8 assay relative to control
[16] = system: HEK293; test: Chemo-sensitizing activity against ABCG2-overexpressing human HEK293 cells assessed as reversal fold at 1 uM measured after 72 hrs in presence of topotecan by CCK8 assay relative to control
[17] = system: HEK293; test: Chemo-sensitizing activity against human HEK293 cells assessed as reversal fold at 1 uM measured after 72 hrs in presence of SN-38 by CCK8 assay relative to control
[18] = system: HEK293; test: Chemo-sensitizing activity against ABCG2-overexpressing human HEK293/482R cells assessed as reversal fold at 1 uM measured after 72 hrs in presence of SN-38 by CCK8 assay relative to control
[19] = system: NCI/ADR-RES; test: Chemo-sensitizing activity against ABCB1-overexpressing human NCI/ADR-RES cells assessed as reversal fold at 1 uM measured after 72 hrs in presence of paclitaxel by CCK8 assay relative to control
[20] = system: OVCAR-8; test: Chemo-sensitizing activity against human OVCAR-8 cells assessed as reversal fold at 1 uM measured after 72 hrs in presence of vincristine by CCK8 assay relative to control
[21] = system: NCI/ADR-RES; test: Chemo-sensitizing activity against ABCB1-overexpressing human NCI/ADR-RES cells assessed as reversal fold at 1 uM measured after 72 hrs in presence of vincristine by CCK8 assay relative to control
[22] = system: OVCAR-8; test: Chemo-sensitizing activity against human OVCAR-8 cells assessed as reversal fold at 1 uM measured after 72 hrs in presence of paclitaxel by CCK8 assay relative to control
[23] = system: OVCAR-8; test: Chemo-sensitizing activity against human OVCAR-8 cells assessed as reversal fold at 1 uM measured after 72 hrs in presence of colchicine by CCK8 assay relative to control
[24] = system: NCI/ADR-RES; test: Chemo-sensitizing activity against ABCB1-overexpressing human NCI/ADR-RES cells assessed as reversal fold at 1 uM measured after 72 hrs in presence of colchicine by CCK8 assay relative to control
[25] = system: KB 3-1; test: Chemo-sensitizing activity against human KB 3-1 cells assessed as reversal fold at 1 uM measured after 72 hrs in presence of vincristine by CCK8 assay relative to control
[26] = system: KB-V1; test: Chemo-sensitizing activity against ABCB1-overexpressing human KB-V1 cells assessed as reversal fold at 1 uM measured after 72 hrs in presence of vincristine by CCK8 assay relative to control
[27] = system: KB 3-1; test: Chemo-sensitizing activity against human KB 3-1 cells assessed as reversal fold at 1 uM measured after 72 hrs in presence of paclitaxel by CCK8 assay relative to control
[28] = system: KB-V1; test: Chemo-sensitizing activity against ABCB1-overexpressing human KB-V1 cells assessed as reversal fold at 1 uM measured after 72 hrs in presence of paclitaxel by CCK8 assay relative to control
[29] = system: KB 3-1; test: Chemo-sensitizing activity against human KB 3-1 cells assessed as reversal fold at 1 uM measured after 72 hrs in presence of colchicine by CCK8 assay relative to control
[30] = system: KB-V1; test: Chemo-sensitizing activity against ABCB1-oveexpressing human KB-V1 cells assessed as reversal fold at 1 uM measured after 72 hrs in presence of colchicine by CCK8 assay relative to control
[31] = system: HEK293; test: Chemo-sensitizing activity against human HEK293 cells assessed as reversal fold at 1 uM measured after 72 hrs in presence of vincristine by CCK8 assay relative to control
[32] = system: HEK293; test: Chemo-sensitizing activity against ABCB1-overexpressing human HEK293/MDR19 cells assessed as reversal fold at 1 uM measured after 72 hrs in presence of vincristine by CCK8 assay relative to control
[33] = system: HEK293; test: Chemo-sensitizing activity against human HEK293 cells assessed as reversal fold at 1 uM measured after 72 hrs in presence of paclitaxel by CCK8 assay relative to control
[34] = system: HEK293; test: Chemo-sensitizing activity against ABCB1-overexpressing human HEK293/MDR19 cells assessed as reversal fold at 1 uM measured after 72 hrs in presence of paclitaxel by CCK8 assay relative to control
[35] = system: HEK293; test: Chemo-sensitizing activity against human HEK293 cells assessed as reversal fold at 1 uM measured after 72 hrs in presence of colchicine by CCK8 assay relative to control
[36] = system: HEK293; test: Chemo-sensitizing activity against ABCB1-overexpressing human HEK293/MDR19 cells assessed as reversal fold at 1 uM measured after 72 hrs in presence of colchicine by CCK8 assay relative to control

## COc1ccc2c3c([nH]c2c1)[C@H](CC(C)C)N1C(=O)[C@H](CCC(=O)OC(C)(C)C)NC(=O)[C@@H]1C3
[1]
  fold change (FC): 1.7
[2]
  fold change (FC): 18
[3]
  fold change (FC): 2.7
[4]
  fold change (FC): 22.6
[5]
  fold change (FC): 3
[6]
  fold change (FC): 20.6
[7]
  fold change (FC): 2
[8]
  fold change (FC): 14.9
[9]
  fold change (FC): 1.7
[10]
  fold change (FC): 9.1
[11]
  fold change (FC): 1.6
[12]
  fold change (FC): 13.2
[13]
  fold change (FC): 1.1
[14]
  fold change (FC): 11.9
[15]
  fold change (FC): 0.9
[16]
  fold change (FC): 5.8
[17]
  fold change (FC): 1
[18]
  fold change (FC): 24.1

## COc1cc2c(cc1OC)CN(CCc1ccc(NC(=O)c3cc(OC)c(OC)cc3NC(=O)c3cnc4ccccc4c3)cc1)CC2 [TARIQUIDAR]
[19]
  fold change (FC): 1040
[20]
  fold change (FC): 1.3
[21]
  fold change (FC): 174
[22]
  fold change (FC): 1
[23]
  fold change (FC): 1
[24]
  fold change (FC): 45
[25]
  fold change (FC): 1.1
[26]
  fold change (FC): 786
[27]
  fold change (FC): 0.9
[28]
  fold change (FC): 1281
[29]
  fold change (FC): 1.2
[30]
  fold change (FC): 50.7
[31]
  fold change (FC): 1.5
[32]
  fold change (FC): 245.2
[33]
  fold change (FC): 1
[34]
  fold change (FC): 309
[35]
  fold change (FC): 1
[36]
  fold change (FC): 12.9
